Laboratory results: article PMC6197744, “Triazolo[4,5-d]pyrimidines as Validated General Control Nonderepressible 2 (GCN2) Protein Kinase Inhibitors Reduce Growth of Leukemia Cells” (Computational and Structural Biotechnology Journal, 2018)

Assays:
[1] = Permeability assay (PAMPA); type: in vitro ADME; settings: pH 7.4, 25 °C, <10 low, >10 high permeability
Procedure: GCN2 compound permeability was determined by PAMPA and was performed by Pharmaron, Inc. (Beijing, China). All compounds and control stock solutions were prepared in DMSO at a concentration of 10 mM. Testosterone and methotrexate were used as control compounds. Compound stock solutions were diluted with PBS (pH 7.4) to a final concentration of 10 μM. A 1.8% solution (w/v) of lecithin in dodecane was prepared and sonicated to ensure a complete dissolution. 5 μL of the lecithin/dodecane mixture were pipetted into each acceptor plate well (top compartment). Immediately after the application of the artificial membrane (within 10 min), 300 μL of PBS (pH 7.4) solution were added to each well of the acceptor plate. 300 μL of drug-containing solutions were added to each well of the donor plate (bottom compartment) in triplicate. The plate lid was replaced and incubated at 25 °C, 60 rpm for 16 h. After incubation, aliquots of 50 μL from each well of acceptor and donor plate were transferred into a 96-well plate and 200 μL of methanol (containing IS: 100 nM Alprazolam, 200 nM Labetalol and 2 μM Ketoprofen) was added to each well. The plate was vortexed at 750 rpm for 100 s. Samples were centrifuged at 3220g for 20 min. The compound concentrations were determined by LC/MS/MS. The effective permeability (Pe), in units of centimeter per second were calculated using the following equation: logPe=logC×−ln1−drugacceptor/drugequilibrium

[2] = system: phosphorylation of eIF2α (p-eIF2α); experiment: p-eIF2α reduction in amino acid deprived HEK293T cells (Western blot); type: cell-based; settings: Homo sapiens, HEK-293T, amino acid deprived 4 h
Procedure: Compounds 1–9 were screened in a radiometric […] kinase assay against human GCN2 and other kinases involved in the UPR and ISR pathways (Table 1). […] The most soluble of the potent tool compounds (1 and 2) were selected for in vitro cell-based assays where the phosphorylation of eIF2α (p-eIF2α) was used as a readout for GCN2 inhibition.
HEK293T cells were purchased from the American Type Culture Collection and were cultured in Dulbecco's modified Eagle's medium (DMEM; GIBCO-11995) supplemented with 10% fetal bovine serum (FBS) (Corning™ 35015CV) and antibiotics (penicillin, 10,000 UI/ml and streptomycin, 10,000 UI/ml) (Life Technologies, 15,140,122). When indicated, cells were deprived of amino acids for 4 h with DMEM (DMEM; GIBCO-21013024) containing no glutamine, no methionine, no cysteine, and no FBS. Upon starvation, cells were treated with DMSO or compound. All cell lines were maintained in humidified incubators at 37 °C under 5% CO2.
Cells were lysed for 10 min on ice with RIPA lysis buffer (50 mM Tris (pH 8), 150 mM NaCl, 1% NP-40, 0.5% sodium deoxycholate, 0.1% SDS, containing Protease Inhibitor Cocktail (PIC) (ROCHE, 11836170001), 100 mM NaF, 2 mM NaVO4, 1 mM Na B-glycerophosphate). […] IC50s were calculated using dose response – Inhibition nonlinear regression algorithm [[inhibitor] vs. response] in GraphPad Prism 7 (GraphPad Software).

[3] = system: 4E-BP mRNA; experiment: qRT-PCR of 4E-BP mRNA in Drosophila S2 cells; type: cell-based; settings: amino acid deprived, 10 μM, 6 h, vs DMSO control
Text: It is known that under normal nutrient conditions the cap-dependent translational inhibitor 4E-BP is not expressed. However stress such as nutrient deprivation is known to trigger the transcriptional induction of 4E-BP. It has recently been shown that GCN2 and its downstream transcription factor, ATF4, mediate 4E-BP induction under amino acid deprivation in Drosophila, S2 cells. To further investigate the downstream effects of 1 and 2 on the amino acid deprivation GCN2 − ATF4 − 4E-BP pathway, the levels of 4E-BP mRNA transcript were monitored. We performed qRT-PCR on Drosophila S2 cells.
Drosophila S2 cell lines were cultured at 25 °C in Schneider's medium (Life Technologies, 21,720,024) and supplemented with 1% penicillin-streptomycin (Life Technologies, 15,140,122). For amino acid deprivation experiments, Schneider's medium lacking amino acids (USBiological Life Sciences, S0100-03) was used. Cells were treated for 6 h with 10 μM inhibitor concatenation or DMSO.
Total RNA was extracted with TRIzol Reagent (Invitrogen, USA). For cDNA synthesis, 200 ng of RNA was transcribed using SuperScript First-Strand Synthesis Kit (Invitrogen, USA). PCR amplification was performed for 25 cycles using taq polymerase (Roche) according to manufacturer's protocol. […] Results were expressed as the relative expression of mRNA levels detected in control samples and were calculated using the ΔΔCt method.

[4] = system: MALME-3M; experiment: NCI-60 one-dose screen; type: cell-based, human; settings: 48 h; for inhibition at 10 µM: Homo sapiens, Melanoma MALME-3M, read-out: Percent growth inhibition; for increase in cell growth: melanoma cell line MALME-3 M, 10 μM
Procedure: Compounds 1 and 2 were submitted to the National Cancer Institute NCI-60 Tumor Cell Screening Program (NCI number 800,700 and 800,701, respectively) for evaluation against the 60 cell line NCI panel at a single dose of 10 μM. […] Leukemia and breast cancer cell lines comprised the only cancer groups that were uniformly sensitive to both 1 and 2, with the greatest sensitivity seen in the leukemia SR cell line.
Compounds 1 and 2 were submitted to the NCI for growth inhibition screening against its panel of 60 cancer cell lines. The NCI screening protocol has extensively been described [[53], [54], [55], [56]]. Briefly, cancerous cell lines were grown in RPMI 1640 medium containing 5% fetal bovine serum and 2 mM L-glutamine. Depending on the doubling time of each cell line, 5000–40,000 cells were seeded in 96-well plates for 24 h. Cells were then treated with compounds 1 or 2 at a concentration of 10 μM and incubated for 48 h at 37 °C in a humidified atmosphere containing 5% CO2. The cells were then fixed and stained with sulforhodamine B (SRB) to determine their viability. The data were analyzed using a program called COMPARE to determine the percent growth inhibition of each compound.

| SMILES | Papp at 16 h, 10 μM [1] | IC50 [2] | relative 4E-BP mRNA levels [3] | inhibition at 10 µM [4] | increase in cell growth [4] |
| --- | --- | --- | --- | --- | --- |
| CCn1cc(Nc2ncc3nnn(-c4ccc(C(=O)OC)cc4)c3n2)cn1 [Compound 1, Methyl 4-(5-((1-ethyl-1H-pyrazol-4-yl)amino)-3H-[1,2,3]triazolo[4,5-d]pyrimidin-3-yl)benzoate] | 16 ×10⁻⁶ cm/s | 52.6 nM | decreased | -27.7% | 27.7% |
| CCOc1ccc(-n2nnc3cnc(Nc4cnn(CC)c4)nc32)cc1 [Compound 2, 3-(4-Ethoxyphenyl)-N-(1-ethyl-1H-pyrazol-4-yl)-3H-[1,2,3]triazolo[4,5-d]pyrimidin-5-amine] | 15.1 ×10⁻⁶ cm/s | 138 nM | decreased | -37.2% | 37.2% |
